Measurements as given in patent US20260216123A1, “PHARMACEUTICAL COMPOSITION FOR PREVENTING OR TREATING DEGENERATIVE OSTEOARTHRITIS” (GLACEUM INC., priority 2023, published 2026).

Tests used:
Type in all cases: in vivo
[1] = tested on: knee joint tissue of MIA-OA rat model; assay: Histopathological analysis of knee joint tissue (Safranin O staining, OARSI and Mankin scores) in MIA-OA animal model
Procedure: All animals were allowed to acclimatize for one week after introduction to the laboratory environment. On the day of the start of the experiment, monosodium iodoacetate (MIA, Sigma, Cat. No. 12512) was dissolved in saline for injection at a concentration of 30 mg/mL, and 50 μL of the solution was administered once on the day of the start of the experiment. The animals were divided into groups as follows. The animals were randomly distributed so that the average of each group was distributed as evenly as possible according to the pain threshold evaluation values ranked, so as to obtain the number specified in the “Constitution of Test Groups” table. Individual identification was done by writing numbers directly on the tails of the animals. Individual identification cards of different colors were attached to the housing boxes according to each dose. An animal room usage record sheet containing the test number, animal room usage period, principal investigator name, subinvestigator name, emergency contact information, etc. was attached to the animal room entrance. The test groups consisted of WT, vehicle, 25 mg/kg Compound 2, and 50 mg/kg Compound 2, respectively, which were administered orally once a day for a total of 21 days starting from 3 days after MIA administration.
Histopathological analysis of knee joint tissue was performed using the same model as that in Experimental Example 1. For histopathological analysis, Safranin 0 staining was performed, and two evaluators scored the severity of osteoarthritis according to the following evaluation criteria. As the analysis criteria, OARSI and total Mankin scores were analyzed. The OARSI analysis criteria were scored as follows: 0: normal cartilage surface; 1: cartilage surface is normal but cell death is found; 2: disruption of the cartilage surface and fibrosis of the surface layer; 3: splitting along the longitudinal axis of cartilage; 4: damage and infiltration to the middle part of cartilage; 5: exposure of stromal bone area; and 6: complete cartilage damage and formation of osteophytes. The total Mankin score analysis criteria were analyzed for four items: structure (0-6), cell (0-3), Safranin 0 (0-4), and tidemark (0-1). A higher score for each item indicates more damage to chondrocytes cells and structure.

MMP3 = assay: Immunohistochemical analysis of knee joint tissue in MIA-OA animal model: MMP3; settings: MIA-OA rat; immunohistochemistry; FIG. 7
Procedure: (§1) All animals were allowed to acclimatize for one week after introduction to the laboratory environment. On the day of the start of the experiment, monosodium iodoacetate (MIA, Sigma, Cat. No. 12512) was dissolved in saline for injection at a concentration of 30 mg/mL, and 50 μL of the solution was administered once on the day of the start of the experiment. The animals were divided into groups as follows. The animals were randomly distributed so that the average of each group was distributed as evenly as possible according to the pain threshold evaluation values ranked, so as to obtain the number specified in the “Constitution of Test Groups” table. Individual identification was done by writing numbers directly on the tails of the animals. Individual identification cards of different colors were attached to the housing boxes according to each dose. An animal room usage record sheet containing the test number, animal room usage period, principal investigator name, subinvestigator name, emergency contact information, etc. was attached to the animal room entrance. […]
(§2) The histopathological analysis of knee joint tissue was performed using the same model as that in Experimental Example 1. […] Then, the Dab-positive area expressing each cytokine in the synovium was extracted using ImageJ software (Wayne Rasband, NIH, USA) and expressed as a percentage relative to the total nuclear area.

RIPK3 = assay: Immunohistochemical analysis of knee joint tissue in MIA-OA animal model: RIPK3; settings: MIA-OA rat; immunohistochemistry; FIG. 8
Procedure: as §1, §2

IL-6 = assay: Immunohistochemical analysis of knee joint tissue in MIA-OA animal model: IL-6; settings: MIA-OA rat; immunohistochemistry; FIG. 5
Procedure: as §1, §2

MIA-induced OA rat model [2] = assay: Pain suppression (nociceptive pain threshold, dynamic plantar aesthesiometer) in MIA-induced OA rat model; settings: FIG. 1
Procedure: All animals were allowed to acclimatize for one week after introduction to the laboratory environment. On the day of the start of the experiment, monosodium iodoacetate (MIA, Sigma, Cat. No. 12512) was dissolved in saline for injection at a concentration of 30 mg/mL, and 50 μL of the solution was administered once on the day of the start of the experiment. The animals were divided into groups as follows. The animals were randomly distributed so that the average of each group was distributed as evenly as possible according to the pain threshold evaluation values ranked, so as to obtain the number specified in the “Constitution of Test Groups” table. Individual identification was done by writing numbers directly on the tails of the animals. Individual identification cards of different colors were attached to the housing boxes according to each dose. […]
The nociceptive pain threshold (g) was measured using a dynamic plantar aesthesiometer (Ugo Basile, 37400, Comerio, Italy), a device in which the force applied to the animal's paw gradually increases over a certain period of time. […] The results for the nociceptive pain threshold were calculated as paw withdrawal latency (sec) and paw withdrawal threshold (g).

MCP-1 = assay: Immunohistochemical analysis of knee joint tissue in MIA-OA animal model: MCP-1; settings: MIA-OA rat; immunohistochemistry; FIG. 6
Procedure: as §1, §2

MIA-induced OA rat model [3] = assay: Weight bearing (incapacitance meter) in MIA-induced OA rat model; settings: FIG. 2
Procedure: All animals were allowed to acclimatize for one week after introduction to the laboratory environment. On the day of the start of the experiment, monosodium iodoacetate (MIA, Sigma, Cat. No. 12512) was dissolved in saline for injection at a concentration of 30 mg/mL, and 50 μL of the solution was administered once on the day of the start of the experiment. The animals were divided into groups as follows. The animals were randomly distributed so that the average of each group was distributed as evenly as possible according to the pain threshold evaluation values ranked, so as to obtain the number specified in the “Constitution of Test Groups” table. Individual identification was done by writing numbers directly on the tails of the animals. […]
Weight bearing was measured using the same model as that in Experimental Example 1. […] The weight bearing of each hind paw was measured using an incapacitance meter (Model 600, IITC, USA), a device for measuring weight bearing. […]
When each animal was correctly positioned in the holder, the machine was operated, the measurement time was set to 5 seconds, and a total of two measurements were taken and averaged to determine the weight bearing (g) of each paw. […] The results of the weight-bearing measurement test were converted into weight bearing ratio using the following calculation formula and analyzed.

[4] = oral once a day, 21 days, FIG. 4

In the case of `CCOc1ccc(C2COc3c(ccc4c3CCC(C)(C)O4)C2)c(O)c1` (centres unmarked) [Compound 2], the “histopathology score efficacy compared with positive control celecoxib” value ([1]; OARSI and Mankin scores, FIG. 4) is reported as “efficacy equivalent to that of celecoxib”, the “Safranin 0 staining of the cartilage tissue” value ([1]; oral once a day, 21 days, FIG. 3) is reported as “improved” and the “Mankin score (severity of osteoarthritis)” value [1, 4] is reported as “reduced”. The “ORASI score (severity of osteoarthritis)” value [1, 4] was “reduced”, the “MMP3 in knee joint tissue (Dab-positive area)” value (MMP3) was “reduced” and the “MMP3 reduction efficacy compared with positive control celecoxib” value (MMP3) was “better efficacy than celecoxib”. For the same molecule, the “RIPK3 in knee joint tissue (Dab-positive area)” value (RIPK3) was “inhibited”, the “RIPK3 inhibition efficacy compared with positive control celecoxib” value (RIPK3) was “better efficacy than celecoxib” and the “IL-6 in knee joint tissue (Dab-positive area)” value (IL-6) was “inhibited”. The “pain caused by cartilage damage (nociceptive pain threshold)” value (MIA-induced OA rat model [2]; 25 mg/kg and 50 mg/kg orally once a day for 21 days from 3 days after MIA) was “gradually reduced”, the “pain suppression efficacy compared with positive control celecoxib” value (MIA-induced OA rat model [2]; oral once a day, 21 days) was “efficacy equivalent to that of the positive control, celecoxib” and the “MCP-1 in knee joint tissue (Dab-positive area)” value (MCP-1) was “inhibited”. The “weight bearing following cartilage damage” value (MIA-induced OA rat model [3]; 25 mg/kg and 50 mg/kg orally once a day for 21 days) was “reduced” and the “weight bearing efficacy compared with positive control celecoxib” value (MIA-induced OA rat model [3]; oral once a day, 21 days) was “efficacy equivalent to that of celecoxib”.
